Assay results taken from patent US11926841B2, “AAV-based conditional expression system” (priority 2016, dated 2024).

Legend:
Assay type in all cases: cell-based
ACV-resistant HSV-1 = experiment: Endpoint dilution assay (TCID50) of supernatants of ACV treated infected LE2D8 cells, resistant HSV-1; settings: ACV 1, 6, 12, 48 and 96 μg/ml; counts at day 7
Text: (§1) For the validation of the new established replicon based assay we made an endpoint-dilution-assay to monitor the amount of the produced viruses in presence of the ACV treatment. This standardised assay for detection of viral growth is very sensitive but very time consuming since 5-7 days are required to obtain the results. To test the virus production in our assay condition with the standard method the sensitive and ACV-resistant HSV-1 containing assay supernatants of the infected LE2D8 cells treated with different concentrations of ACV (n.t., 1, 6, 12, 48 and 96 μg/ml) were collected. Subsequently endpoint dilution assays were performed using HEK-cells in a 96 well plate format. The Tissue Culture Infection Dose 50 (TCID50) was calculated after collecting the infectivity counts at day 7 (FIG. 5B).

[1] = system: wild type ACV sensitive HSV-1 laboratory strain; experiment: AAV replicon based ACV resistance test in LE2D8 cells (GLuc luciferase readout), sensitive HSV-1; settings: ACV 6-12 μg/mi, MOI 0.035, 48 hpi
Experimental: The cell line LE2D8 was seeded onto 96-well-plates at density of 3.3×10^4 cell/well. Two hours after seeding the cells were left untreated or were treated with different concentrations of ACV (CAS: 59277-89-3) (ranging from 0.05 to 144 μg/ml). Right after treatment the cells were infected with either a wild type ACV sensitive HSV-1 laboratory strain or an ACV resistant strain (kindly provided from Dr. Gundula Jäger, Max von Pettenkofer-Institute, LMU Munich) using an MOI of 0.035. After only 48 hpi luciferase activity in 20 μl of the supernatant was measured as the previous experiments. The luciferase activities of the ACV treated cells were compared to the luciferase activities obtained after infection of the non-treated cells. The luciferase induction of the non-treated cells was set 100% and the activity of the ACV treated cells was depicted as % of the non-treated values (FIG. 5A).

[2] = system: ACV sensitive HSV-1 laboratory strain; experiment: Endpoint dilution assay (TCID50) of supernatants of ACV treated infected LE2D8 cells, sensitive HSV-1; settings: ACV 1, 6, 12, 48 and 96 μg/ml; counts at day 7
Text: as §1

[3] = system: ACV sensitive HSV-2 isolate; experiment: AAV replicon based resistance test with clinical HSV-2 isolates, sensitive isolate; settings: ACV 20 μM and higher; LE2D8 cells; 48 hpi
Experimental: (§2) For testing the single HSV-2 virus isolates, LE2D8 were seeded to 3.3×10^4 cells in a 96 well format, 2 hours before treatment with 0.8, 4, 20, 100 and 500 μM ACV and infection with 1:10 diluted HSV-2 isolates, always using technical triplicates. After 48 hpi, GLuc activity in the supernatant was measured by luminometry and values were compared to non-treated and mock infected cells as above. In FIGS. 6A and 6B we show example of the replicon response induced by an ACV sensitive HSV2- and one of an ACV resistant HSV-2 isolate.

[4] = system: ACV resistant HSV-2 isolate; experiment: AAV replicon based resistance test with clinical HSV-2 isolates, resistant isolate; settings: ACV 0.8, 4, 20, 100 and 500 μM; LE2D8 cells; 48 hpi
Experimental: as §2

Nc1nc2c(ncn2COCCO)c(=O)[nH]1 [ACV, Aciclovir]
virus replication under ACV treatment (TCID50, endpoint dilution) (ACV-resistant HSV-1): could not inhibit the replication | luciferase activity, % of non-treated cells [1]: 20% | virus replication under ACV treatment (TCID50, endpoint dilution) [2]: indeed inhibited by ACV treatment | GLuc activity compared to non-treated cells [3]: decreasing amounts of GLuc activity | GLuc induction, % of the non-treated values [4]: ≥ 50%
